We go through two molecules from patent US20240100068A1, “METHODS COMPRISING ADMINISTRATION OF A GLUCOCORTICOID RECEPTOR AGONIST AND AN INHIBITOR OF CALCINEURIN” (Chengdu Anticancer Bioscience, Ltd., priority 2022, published 2024).

The test system of assay [1] is murine lung cancer cell line TA2280. The assay can be described thus: Final cell density and vacuolation in lung cancer cell line TA2280. Type of assay: cell-based. Particulars: for final cell density: 2 weeks. From the text:
FIG. 5A. are images showing Hydrocortisone and Dexamethasone reduce the final cell density in a murine lung cancer cell line TA2280. The cells were exposed to vehicle or the indicated concentrations of either Hydrocortisone or Dexamethasone for 2 weeks. The cells were then fixed and stained with PI for nuclei to reveal the cell density.

Another assay deals with T2Bc1-xL cells. The assay can be described thus: Restoration of contact inhibition and induction of vacuolation in Bc1-xL expressing cells. Type of assay: cell-based, murine. Particulars: FIG. 6A: 7 days, 2 μM of DEX. As for the experimental part:
(§1) The indicated cell isogenic cell lines were exposed for 7 days to 2 μM of DEX. The cells were then imaged under an inverted tissue culture microscope (top left) or an EVOS FL Auto microscope after staining with Acridine Orange (bottom left). The area occupied by drug-induced vacuoles was quantified with Image J and data (bottom right). At the endpoint, the cells were also numerated with a Luna cell counter and relative cell number is shown (top right).

The subject of assay [2] is human lung cancer cell line A549. The assay can be described thus: Final cell density and vacuolation in lung cancer cell line A549. Type of assay: cell-based. Particulars: for final cell density: 2 weeks. As to the method: (§2) FIG. 5B are graphs and images showing Hydrocortisone and Dexamethasone reduce the final cell density in a lung cancer cell line A549 and a breast cancer cell line MDA-MB-231). The cells were exposed to vehicle or the indicated concentrations of either Hydrocortisone or Dexamethasone for 2 weeks. The cells were then either numerated with a Luna cell counter or fixed and stained with PI for nuclei to reveal the cell density.
Cells were treated for 10 days with Hydrocortisone and a Calcineurin inhibitor either individually or in combination and then stained with PI for DNA before imaged with an EVOS FL auto microscope.

The subject of assay [3] is T2Puro. The assay can be described thus: Restoration of contact inhibition and induction of vacuolation in control cell line. Particulars: FIG. 6A: 7 days, 2 μM of DEX. Type of assay: cell-based, murine. As to the method:
as §1

For assay [4], the system named is T2MycNick cells. The assay can be described thus: IF analysis of cell-cell junctions (ZO-1, β-catenin) in monolayer zones. Type of assay: cell-based, murine. Particulars: 7 days. As to the method: FIG. 14A. Are images (left) and graphs (right) showing relocation of β-catenin to the cell-cell junctions in monolayer zones. The murine liver cancer cell line T2MycNick was treated with the indicated concentration of Hydrocortisone or Dexamethasone for 7 days before fixed for IF analysis of β-catenin. DNA was stained with DAPI. Images were acquired with an EVOS FL auto microscope. The relative signal density alone the line in each subpanel was quantified with Image J.
FIG. 14B. Are images (left) and graphs (right) showing relocation of ZO-1 to the cell-cell junctions in monolayer zones. […] The relative signal density alone the line in each subpanel was quantified with Image J. […]
The following are primary antibodies used in this study. […] Primary antibodies were detected with Rhodamine (TRITC)-conjugated AffiniPure Donkey Anti-Rabbit IgG (H+L) (Cat. # 711-025-152), Fluorescein(FITC)-conjugated Affinipure Goat Anti-Rabbit IgG (H+L) (Cat.#111-095-003), Alexa Fluor488 Affinipure Goat Anti-Mouse IgG (H+L) (Cat. #115-545-003 from Jackson ImmunoResearch at 1:500 dilution. After immunostaining, cells were mounted on microscope slides with 4′,6′-diamidino-2-phenylindole (DAPI)-containing Vectashield mounting solution (Vector Laboratories, Cat. # H1500). For fluorescence detection, an EVOS FL Auto microscope (Thermo Fisher) was used.

Assay [5] has as its system breast cancer cell line MDA-MB-231. The assay can be described thus: Final cell density and vacuolation in breast cancer cell line MDA-MB-231. Type of assay: cell-based. Particulars: for final cell density: 2 weeks.
Description: as §2

Assay [6] has as its system T2MycNick cells. The assay can be described thus: Proliferation and viability of cells cultured under sub-confluence. Particulars: for effect on proliferation and viability: cells grown at sub-confluence. Type of assay: cell-based, murine. As for the experimental part:
(§3) FIG. 1A is a graph showing that DEX has no effect on the viability of murine liver cancer cell lines cultured under sub-confluence. The isogenic murine liver cancer cell lines T2Puro and T2MycNick were passaged and exposed to vehicle or 2 μM of DEX at a confluence of 10%. The cell viability was assayed with Trypan blue exclusion assays at day 3.
FIG. 1C is a graph showing DEX has no effect on the proliferation of murine liver cancer cell lines cultured under sub-confluence the live cell number was calculated daily with an automatic Luna cell counter and relative cell number was shown for T2MycNick.
Exponentially growing murine cells expressing Myc-Nick (T2MycNick cells) were passaged into 24-well plates at a final confluence of 20% and were allowed to attach overnight before being exposed to a test compound at a concentration of 10 μM. T2MycNick cells were generated by expressing the Myc-nick, the N-terminal of the Myc protein, in the T2 cell line, which was, in turn, derived from a MYC-driven mouse liver cancer (Shachaf et al., Nature 2004 Oct. 28; 431(7012):1112-7). The cells were subjected to daily analysis of viability and morphology under an inverted tissue culture microscope or GE InCell Analyzer 2000. Cell density was documented after staining of DNA with PI 7-10 days after the initiation of treatment.

In assay [7] the test system is T2MycNick cells. The assay can be described thus: Testing compounds for their ability of restoring contact inhibition (vacuolation, cell density). Particulars: for minimal effective concentration: T2MycNick cells grown beyond confluence, 7-14 days; for diameters of large vacuoles: cells that overgrew beyond confluence; for contact inhibition restoration (CIR) activity: high-density cells. Type of assay: cell-based, murine.

Assay [8] has as its system MycNick cells. The assay can be described thus: Soft agar colony formation assay (anchorage-independent growth). Particulars: FIG. 9: 2 μM of DEX or 5 μM of HC, up to 22 days. In kind it is cell-based, murine. As for the experimental part:
FIG. 9. are images (left) and graphs (right) showing both Hydrocortisone and Dexamethasone suppress the anchorage-independent growth of T2MycNick cells. The T2MycNick cells were mixed with 0.35% soft agar and transferred to 24-well microplates 24 hours before exposed to vehicle, 2 μM of DEX or 5 μM of HC. Images were acquired with an inverted tissue culture microscope at 1, 9 and 22 days after initiation of drug treatment. The sizes of spheroids were quantified with Image J (right).
The soft agar colony formation assay was performed in 6-well plates with two layers of agar. For the first, 0.75% agar in DMEM medium was melted in a microwave oven and poured to form a bottom layer. Once solidified, 10-100K cells in 1 ml of DMEM containing 0.35% agar was added to form the top layer, which was later covered with 0.5 ml of DMEM. Cell culture medium was changed once every two days until colonies were ready to photograph. The antitumor activity of Hydrocortisone and Dexamethasone was tested in soft agar assays. […] The suppression of growth of the cell line in 3D culture is consistent with the suppressive impact of these compounds on cell density when cells were allowed to grow beyond confluence.

Assay [9] deals with MycNick cells. The assay can be described thus: MTT assay for cellular proliferation. Type of assay: cell-based, murine. Particulars: confluence of 20-30%, 1 nM to 5 μM.
In assay [10] the test system is T2Puro. The assay can be described thus: Proliferation and viability of cells cultured under sub-confluence. Type of assay: cell-based, murine. As to the method:
as §3
FIG. 1B is a graph showing DEX has no effect on the proliferation of murine liver cancer cell lines cultured under sub-confluence. The live cell number was calculated daily with an automatic Luna cell counter and relative cell number was shown for T2Puro.

Entries after “also recorded” stand apart in the source; their conditions may differ. Like-named read-outs stand apart in the source and are kept apart here.

For `C[C@]12CCC(=O)C=C1CC[C@@H]1[C@@H]2[C@@H](O)C[C@@]2(C)[C@H]1CC[C@]2(O)C(=O)CO` [HC001, Hydrocortisone], the vacuolation entry in assay [1], in assay [2] and in [5] was “induction of vacuolation” each time. For the same molecule, the final cell density entry in [1], in assay [2] and in assay [5] was “Reduction of final cell density” throughout. Moreover, the “sensitivity (contact inhibition, vacuolation)” value in the assay on T2Bc1-xL cells is given as “did not confer sensitivity”. For the same molecule, the “response (contact inhibition, vacuolation)” value with T2Puro [3] was “did not respond”. Further, the “cell-cell junctions in monolayer zones” value with T2MycNick cells [4] is “restored”. The “cellular proliferation and viability” value in the assay on T2MycNick cells [6] (5 μM, grown in sub-confluence) is “did not affect”. Further, the “effect on proliferation and viability” value with T2MycNick cells [6] is recorded as “no detectable effect”. For the same molecule, the minimal effective concentration with T2MycNick cells [7] (Mus musculus, PI staining, read-out: Conc that reduces > 50% in the cell density) came out at 0.156 µM; in the assay with T2MycNick cells [7] (Mus musculus, vacuolation covering no less than 10% of a random field, read-out: Min. effective conc. that elicits vacuolation), 0.156 µM. Besides, the “diameters of large vacuoles” value with T2MycNick cells [7] was “about 20 μm”. For the same molecule, in the assay on T2MycNick cells [7], the “contact inhibition restoration (CIR) activity” value is “restored contact inhibition”. The anchorage-independent growth entry in the assay on MycNick cells [8] was “effectively suppressed; also recorded: suppress”. Moreover, the “proliferation (MTT)” value in the assay with MycNick cells [9] is reported as “neither Hydrocortisone nor Cyclosporin A affected the proliferation”.
Consider `C[C@@H]1C[C@H]2[C@@H]3CCC4=CC(=O)C=C[C@]4(C)[C@@]3(F)[C@@H](O)C[C@]2(C)[C@@]1(O)C(=O)CO` [HC002, Dexamethasone], for which the vacuolation entry in [1], in assay [2] and in [5] was “induction of vacuolation” each time. Also, the final cell density entry in assay [1], in assay [2] and in [5] was “Reduction of final cell density” each time. The “sensitivity (contact inhibition, vacuolation)” value in the assay with T2Bc1-xL cells is on record as “did not confer sensitivity”. Further, the “response (contact inhibition, vacuolation)” value with T2Puro [3] is recorded as “did not respond”. In the assay with T2MycNick cells [4], the “cell-cell junctions in monolayer zones” value is given as “restored”. Also, the “viability (Trypan blue exclusion)” value with T2MycNick cells [6] (2 μM, confluence of 10%, day 3) is recorded as “no effect”; in the assay on T2Puro [10] (2 μM, confluence of 10%, day 3), “no effect”. Also, the “effect on proliferation and viability” value with T2MycNick cells [6] is “no detectable effect”. Also, the “proliferation (relative live cell number)” value in the assay with T2MycNick cells [6] (sub-confluence, counted daily) was “no effect”; in the assay on T2Puro [10] (sub-confluence, counted daily), “no effect”. Besides, the minimal effective concentration in the assay with T2MycNick cells [7] (PI staining, read-out: Conc that reduces > 50% in the cell density) was 0.125 µM; with T2MycNick cells [7] (vacuolation covering no less than 10% of a random field, read-out: Min. effective conc. that elicits vacuolation), 0.125 µM. In addition, the “diameters of large vacuoles” value with T2MycNick cells [7] is listed as “about 20 μm”. In the assay on T2MycNick cells [7], the “contact inhibition restoration (CIR) activity” value was “restored contact inhibition”. Further, the anchorage-independent growth result with MycNick cells [8] is recorded as “effectively suppressed; also recorded: suppress”.
